Source: the NIST ThermoML archive (doi:10.1007/s10765-010-0719-7)

What was measured:
[1] = refractive index (Na D-line) (dimensionless); conditions: 303.15 K; 101.33 kPa; Liquid; Standard Abbe refractometry
[2] = 101 kPa, Liquid; for mass density: Pycnometric method
[3] = refractive index (Na D-line) (dimensionless); xn = mol fraction of the nth substance listed; conditions: 303.15 K, 101 kPa, Liquid, Standard Abbe refractometry
[4] = xn = mol fraction of the nth substance listed; conditions: 101 kPa, Liquid; for mass density: Pycnometric method

COCCO [2-methoxyethan-1-ol]
Conditions	refractive index
[1]	1.3983

[2]
Conditions	mass density [kg/m3]	speed of sound [m/s]	viscosity [mPa·s]
303.15 K	956.8	1324.3	1.55
313.15 K	946.3	–	1.288
323.15 K	937.8	–	1.082

COCCO [2-methoxyethan-1-ol] + CC(C)CCO
Conditions	refractive index
[3], x2 = 0	1.3983

[4], x2 = 0
Conditions	mass density [kg/m3]	speed of sound [m/s]	viscosity [mPa·s]
303.15 K	956.8	1324.3	1.55
313.15 K	946.3	–	1.288
323.15 K	937.8	–	1.082

CC(C)CCO [3-methylbutan-1-ol]
Conditions	refractive index
[1]	1.4035

[2]
Conditions	mass density [kg/m3]	speed of sound [m/s]	viscosity [mPa·s]
303.15 K	803.1	1197.4	3.262
313.15 K	796.4	–	2.441
323.15 K	789.8	–	1.94

CC(C)CCO [3-methylbutan-1-ol] + CCCCOCCO
Conditions	refractive index
[3], x1 = 1	1.4035

[4], x1 = 1
Conditions	mass density [kg/m3]	speed of sound [m/s]	viscosity [mPa·s]
303.15 K	803.1	1197.4	3.262
313.15 K	796.4	–	2.441
323.15 K	789.8	–	1.94

CC(C)CCO [3-methylbutan-1-ol] + CCOCCO
Conditions	refractive index
[3], x1 = 1	1.4035

[4], x1 = 1
Conditions	mass density [kg/m3]	speed of sound [m/s]	viscosity [mPa·s]
303.15 K	803.1	1197.4	3.262
313.15 K	796.4	–	2.441
323.15 K	789.8	–	1.94

CC(C)CCO [3-methylbutan-1-ol] + COCCO
[3]
Conditions	refractive index
x1 = 0.0875	1.3988
x1 = 0.1775	1.3993
x1 = 0.2701	1.3999
x1 = 0.3653	1.4004
x1 = 0.4633	1.4009
x1 = 0.5643	1.4014
x1 = 0.6683	1.402
x1 = 0.7754	1.4025
x1 = 0.886	1.403
x1 = 1	1.4035

[4]
Conditions	mass density, 303.15 K [kg/m3]	mass density, 313.15 K [kg/m3]	mass density, 323.15 K [kg/m3]	speed of sound, 303.15 K [m/s]	viscosity, 303.15 K [mPa·s]	viscosity, 313.15 K [mPa·s]	viscosity, 323.15 K [mPa·s]
x1 = 0.0875	938.3	928.2	919.8	1312.1	1.578	1.312	1.111
x1 = 0.1775	920.5	910.8	902.8	1299.2	1.611	1.341	1.153
x1 = 0.2701	903.2	893.9	885.9	1287.4	1.652	1.376	1.169
x1 = 0.3653	886.7	877.6	870	1274.8	1.749	1.432	1.192
x1 = 0.4633	870.8	862.2	854.7	1261.2	1.82	1.482	1.224
x1 = 0.5643	855.8	847.6	840.1	1248.8	1.934	1.554	1.28
x1 = 0.6683	841.5	833.6	826.3	1235.7	2.119	1.667	1.355
x1 = 0.7754	827.8	820.5	813.2	1223.3	2.354	1.834	1.481
x1 = 0.886	815.1	808.1	801.1	1210.5	2.715	2.06	1.671
x1 = 1	803.1	796.4	789.8	1197.4	3.262	2.441	1.94
